Data published in paper PMC4849758, “Rational Structure-Based Rescaffolding Approach to De Novo Design of Interleukin 10 (IL-10) Receptor-1 Mimetics” (PLoS ONE, 2016).
Bridge positions count the residues as written; N and C are the ends. Square brackets hold non-standard residues; d marks the D form. Peptide text beside a SMILES is read from it. * marks the point of attachment. Trp(5-OH) = N[C@@H](Cc1c[nH]c2ccc(O)cc12)C(=O)O; Butanoyl(4-guanidino) = N=C(N)NCCCC(=O)*

Tests used:
mIL-10C149Y [1] = target: T1, mIL-10C149Y (Mus musculus, UniProt P18893, C167Y); assay: Thermal denaturation by circular dichroism (CD), Kd estimate from two-state unfolding model; format: binding, murine; details: 4.5 μM mimetic; for increase of native protein structure in presence of mimetic, percentage of the total change in the CD signal: at 332 K, average CD signal 215-230 nm, 2 μM mIL-10C149Y; for Kd: calculated from thermal denaturation CD data, 2 μM mIL-10C149Y dimer, two-state unfolding model, lower affinity limit reported
T1 construct: His8 tag (LEHHHHHHHH) from pET41b(+) (C); made in house
T1 sequence (P18893 19-178 C167Y): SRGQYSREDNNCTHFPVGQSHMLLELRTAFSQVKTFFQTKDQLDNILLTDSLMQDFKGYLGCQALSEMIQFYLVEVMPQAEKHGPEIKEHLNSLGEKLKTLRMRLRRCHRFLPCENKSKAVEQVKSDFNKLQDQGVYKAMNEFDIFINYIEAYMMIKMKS
Protocol: M1 was chemically synthesized, and its experimental binding affinity towards IL-10 was assessed by thermal stability measurements using circular dichroism (CD) and fluorescence (see materials and methods). For these studies, we used the readily available murine IL-10 mutant mIL-10C149Y in which Cys149 was replaced by the corresponding Tyr residue of the human protein, as it was previously shown to enhance protein refolding yield. Furthermore, this tyrosine would enhance the sensitivity of tryptophan fluorescence measurements (i.e. as stated above, it can act as energy donor for the tryptophan residue introduced as label in the mimetics).
Complex formation between M1 and mIL-10C149Y was determined by thermal denaturation using CD and the well-known negative ellipticity of IL-10 between 200 to 300 nm. […] The obtained curves shift to higher temperatures in the presence of M1. The shift is due to a lower degree of unfolded protein at any temperature in the presence of mimetic M1 as compared to the denaturation of mIL-10C149Y alone. […] At 332 K, the presence of M1 increased the native protein structure by 8%.
CD spectra were recorded with a J-815 instrument (Jasco, Gross-Umstadt, Germany) from 195 to 300 nm in 1-cm cuvettes at concentrations of 2 μM of mIL-10C149Y (dimer) and 4.5 μM of mimetics M1-M4. Ellipticity θ was recorded in millidegrees. Samples were heated from 298 to 364 K at a rate of 2 K/min under constant stirring to determine stabilization of IL-10/mimetic complexes. Estimates of binding affinities were derived with the assumption of a two state unfolding of mIL-10C149Y. The mimetics were assumed to stabilize exclusively the folded state. These simplifications allow applying equilibrium thermodynamics, such that the fraction Sn of the native state of mIL-10C149Y can be approximated: Sn = (1+ [M] Kd^-1 +Ku)^-1. Kd is the estimated dissociation constant of the mimetic, [M] its concentration. Ku is the temperature-dependent unfolding equilibrium constant (Ku = [denatured]/[native]) as measured by the unfolding curve of mIL-10C149Y in the absence of mimetics. […] In this case, the measured CD curves would be actually compatible with much higher mimetic affinities, because a local stabilization of the mimetic binding epitope on mIL-10C149Y is not counted as binding in the applied two state model but it is very likely to occur. For consistency, we have not explored the higher affinity limit that would still be compatible with the data. Instead, we report only the lower affinity range that complies with the assumptions, in order to prevent bias for overestimated mimetic affinities. […] Absolute thermodynamic parameters could only be obtained by isothermal titration calorimetry with the most promising mimetics. This of course required the initial confirmation of the binding of the precursor molecules which was accomplished by CD and Fluorescence Spectroscopy. Fluorescence emission at 360 nm was monitored simultaneously with the CD scan (the measuring beam served as the excitation light) using a second monochromator and photomultiplier in 90° geometry with respect to the CD absorption path. Thereby, temperature-dependent excitation spectra of the tryptophan at position two in the synthetic IL-10R1 mimetics were additionally obtained with the CD data acquisition.

mIL-10C149Y [2] = target: T1, mIL-10C149Y; assay: Isothermal titration calorimetry (ITC); format: binding, murine; details: for TΔS, entropic component of binding / ΔH, enthalpic term of binding: ITC; for TΔS, entropic component of binding / ΔH, enthalpic term of binding / Kd: 298 K; for Kd: inferred from ITC thermodynamic data, single site model, variable stoichiometry; for fold increase of binding affinity with respect to M2-M4 / fold increase of binding with respect to M1: ratio of Kd values; for fold increase of binding with respect to M1: M1 Kd from thermal denaturation
Source text: Further ligand optimization was accomplished by the introduction of an additional N-terminal H-bond acceptor such as Gln or Glu (M5, M6), which would allow interactions with the cationic side chains of IL-10R27 and IL-10K34 (helix A) or with IL-10N148 (helix F’) (Fig 2A). Favourable energies obtained for the interaction of IL-10 with an aliphatic carboxylate chemical probe supported this rationale. Furthermore, residues IL-10L46 (loop AB) and IL-10I145 (helix F’) would additionally contribute with van der Waals interactions with the aliphatic moieties of the side chains of the residues introduced at the N-teminus. […] Furthermore, these measurements supported the expected stoichiometry 2:1 mimetic:dimer-protein binding ratio as previously observed for the IL-10R1/IL-10 complex.
The final constant heat signals were subtracted to correct for the solution enthalpy of the respective IL-10R1 mimetics. The resulting integrated heat curve was analyzed with the associated software Origin 9 [74] allowing a variable stoichiometry but restriction to a single Kd value (identical binding sites of the dimeric protein).

| SMILES | increase of native protein structure in presence of mimetic, percentage of the total change in the CD signal (mIL-10C149Y [1]) | Kd (mIL-10C149Y [1]) | TΔS, entropic component of binding (mIL-10C149Y [2]) | ΔH, enthalpic term of binding (mIL-10C149Y [2]) | Kd (mIL-10C149Y [2]) | fold increase of binding affinity with respect to M2-M4 (mIL-10C149Y [2]) | fold increase of binding with respect to M1 (mIL-10C149Y [2]) |
| --- | --- | --- | --- | --- | --- | --- | --- |
| CC(=O)N[C@H]1CCCCNC(=O)C[C@@H](C(=O)N[C@H]2CCCCNC(=O)C[C@@H](C(=O)N[C@@H](CCCNC(=N)N)C(=O)N[C@@H](C)C(N)=O)NC(=O)[C@H](C(C)C)NC(=O)[C@H](CCCCN)NC(=O)[C@H](CCCNC(=N)N)NC2=O)NC(=O)[C@H](Cc2ccc(O)cc2)NC(=O)[C@H](CCCNC(=N)N)NC(=O)[C@H](Cc2c[nH]c3ccccc23)NC1=O [M1] (Ac-KWRYDKRKVDRA-NH2; lactam 1-5, 6-10) | 8% | > 30 µM |  |  |  |  |  |
| CC(C)[C@@H]1NC(=O)[C@H](CCCCN)NC(=O)[C@H](CCCNC(=N)N)NC(=O)[C@@H](NC(=O)[C@@H]2CC(=O)NCCCC[C@H](NC(=O)CCCNC(=N)N)C(=O)N[C@@H](Cc3c[nH]c4ccccc34)C(=O)N[C@@H](CCCNC(=N)N)C(=O)N[C@@H](Cc3ccc(O)cc3)C(=O)N2)CCCCNC(=O)C[C@@H](C(=O)N[C@@H](CCCNC(=N)N)C(=O)N[C@@H](C)C(N)=O)NC1=O [M2] ({Butanoyl(4-guanidino)}-KWRYDKRKVDRA-NH2; lactam 1-5, 6-10) | 16% | 5 µM |  |  |  |  |  |
| CC(C)[C@@H]1NC(=O)[C@H](CCCCN)NC(=O)[C@H](CCCNC(=N)N)NC(=O)[C@@H](NC(=O)[C@@H]2CC(=O)NCCCC[C@H](NC(=O)CCCNC(=N)N)C(=O)N[C@@H](Cc3c[nH]c4ccc(O)cc34)C(=O)N[C@@H](CCCNC(=N)N)C(=O)N[C@@H](Cc3ccc(O)cc3)C(=O)N2)CCCCNC(=O)C[C@@H](C(=O)N[C@@H](CCCNC(=N)N)C(=O)N[C@@H](C)C(N)=O)NC1=O [M3] ({Butanoyl(4-guanidino)}-K[Trp(5-OH)]RYDKRKVDRA-NH2; lactam 1-5, 6-10) | 12% | 6.7 µM |  |  |  |  |  |
| CC(=O)N[C@@H](CCCNC(=N)N)C(=O)N[C@H]1CCCCNC(=O)C[C@@H](C(=O)N[C@H]2CCCCNC(=O)C[C@@H](C(=O)N[C@@H](CCCNC(=N)N)C(=O)N[C@@H](C)C(N)=O)NC(=O)[C@H](C(C)C)NC(=O)[C@H](CCCCN)NC(=O)[C@H](CCCNC(=N)N)NC2=O)NC(=O)[C@H](Cc2ccc(O)cc2)NC(=O)[C@H](CCCNC(=N)N)NC(=O)[C@H](Cc2c[nH]c3ccccc23)NC1=O [M4] (Ac-RKWRYDKRKVDRA-NH2; lactam 2-6, 7-11) | 11% | 8.4 µM |  |  |  |  |  |
| CC(=O)N[C@@H](CCC(=O)O)C(=O)N[C@@H](CCCCN)C(=O)N[C@H]1CCCCNC(=O)C[C@@H](C(=O)N[C@H]2CCCCNC(=O)C[C@@H](C(=O)N[C@@H](CCCNC(=N)N)C(=O)N[C@@H](C)C(N)=O)NC(=O)[C@H](C(C)C)NC(=O)[C@H](CCCCN)NC(=O)[C@H](CCCNC(=N)N)NC2=O)NC(=O)[C@H](Cc2ccc(O)cc2)NC(=O)[C@H](CCCNC(=N)N)NC(=O)[C@H](Cc2c[nH]c3ccccc23)NC1=O [M5] (Ac-EKKWRYDKRKVDRA-NH2; lactam 3-7, 8-12) |  |  | 9.5 kcal/mol | -0.5 kcal/mol | 0.07 ± 0.02 µM | more than 70 fold | more than 400 fold |
| CC(=O)N[C@@H](CCC(=O)O)C(=O)N[C@@H](CCCNC(=N)N)C(=O)N[C@H]1CCCCNC(=O)C[C@@H](C(=O)N[C@H]2CCCCNC(=O)C[C@@H](C(=O)N[C@@H](CCCNC(=N)N)C(=O)N[C@@H](C)C(N)=O)NC(=O)[C@H](C(C)C)NC(=O)[C@H](CCCCN)NC(=O)[C@H](CCCNC(=N)N)NC2=O)NC(=O)[C@H](Cc2ccc(O)cc2)NC(=O)[C@H](CCCNC(=N)N)NC(=O)[C@H](Cc2c[nH]c3ccccc23)NC1=O [M6] (Ac-ERKWRYDKRKVDRA-NH2; lactam 3-7, 8-12) |  |  | 9.5 kcal/mol | -0.5 kcal/mol | 0.04 ± 0.02 µM | more than 70 fold | more than 400 fold |
